# Reference: ChEMBL document CHEMBL3232777, “QSAR models for HEPT derivates as NNRTI inhibitors based on Monte Carlo method” (Eur J Med Chem, 2014)
# Tested on: Human immunodeficiency virus 1
# Experiment: Antiviral activity against HIV1 3B infected in human MT4 cells assessed as protection from cytopathic effect
# Assay type: functional, organism-based
# Details: Human immunodeficiency virus 1, 3B
row,IC50 [µM],SMILES
1,21.9,COc1cccc(Sc2c(C)c(=O)[nH]c(=O)n2COCCO)c1
2,0.00501,Cc1cc(C)cc(Sc2c(C(C)C)c(=O)[nH]c(=S)n2COCCO)c1
3,0.0129,CCOCn1c(Sc2ccccc2)c(C(C)C)c(=O)[nH]c1=S
4,0.00589,CCc1c(Sc2ccccc2)n(COCc2ccccc2)c(=O)[nH]c1=O
5,3.31,Cc1c(Sc2cccc(F)c2)n(COCCO)c(=O)[nH]c1=O
6,10,CCCc1c(Sc2ccccc2)n(COCCO)c(=S)[nH]c1=O
7,20.9,O=c1[nH]c(=O)n(COCCO)c(Sc2ccccc2)c1Sc1ccccc1
8,0.331,CCOCn1c(Sc2ccccc2)c(C)c(=O)[nH]c1=O
9,0.0776,CCc1c(Sc2ccccc2)n(COCc2ccc(C)cc2)c(=S)[nH]c1=O
10,20,O=c1[nH]c(=O)n(COCCO)c(Sc2ccccc2)c1Br
11,0.219,CCc1c(Sc2ccccc2)n(COC(C)C)c(=S)[nH]c1=O
12,6.61,COC(=O)c1c(Sc2ccccc2)n(COCCO)c(=O)[nH]c1=O
13,0.0102,CCOCn1c(Sc2ccccc2)c(C(C)C)c(=O)[nH]c1=O
14,3.39,CCCc1c(Sc2ccccc2)n(COCCO)c(=O)[nH]c1=O
15,1.29,Cc1c(Sc2cc(Cl)cc(Cl)c2)n(COCCO)c(=O)[nH]c1=O
16,12,Cc1c(Sc2cccc(C(C)(C)C)c2)n(COCCO)c(=O)[nH]c1=O
17,5.75,Cc1c(Sc2ccccc2)n(COCCN=[N+]=[N-])c(=O)[nH]c1=O
18,0.0141,CCc1c(Sc2cc(Cl)cc(Cl)c2)n(COCCO)c(=O)[nH]c1=O
19,129,Cc1c(Sc2ccccc2Cl)n(COCCO)c(=O)[nH]c1=O
20,0.447,CCc1c(Sc2ccccc2)n(COCC2CCCCC2)c(=O)[nH]c1=O
21,7.08,Cc1c(Sc2ccccc2)n(COCCO)c(=O)[nH]c1=O [HEPT]
22,251,Cc1c(Sc2cccc(N)c2)n(COCCO)c(=O)[nH]c1=O
23,0.0955,CCOCn1c(Sc2ccccc2)c(C2CC2)c(=O)[nH]c1=S
24,309,Cc1c(Sc2cccc(C(N)=O)c2)n(COCCO)c(=O)[nH]c1=O
25,0.0912,CCc1c(Sc2ccccc2)n(COCCc2ccccc2)c(=S)[nH]c1=O
26,0.0191,CCOCn1c(Sc2ccccc2)c(CC)c(=O)[nH]c1=O

row,IC50 [µM],SMILES
1,0.851,O=c1[nH]c(=O)n(COCCO)c(Sc2ccccc2)c1C=C(c1ccccc1)c1ccccc1
2,0.012,CCc1c(Sc2ccccc2)n(COCc2ccc(Cl)cc2)c(=S)[nH]c1=O
3,0.00813,CCc1c(Sc2ccccc2)n(COCc2ccccc2)c(=S)[nH]c1=O
4,251,Cc1c(O)nc(O)nc1Sc1ccccc1
5,0.12,CCc1c(Sc2ccccc2)n(COCCO)c(=O)[nH]c1=O
6,251,COc1ccc(Sc2c(C)c(=O)[nH]c(=O)n2COCCO)cc1
7,5.75,Cc1c(Sc2cccc(Br)c2)n(COCCO)c(=O)[nH]c1=O
8,12.9,O=C(c1ccccc1)c1c(Sc2ccccc2)n(COCCO)c(=O)[nH]c1=O
9,110,CC(=O)c1ccc(Sc2c(C)c(=O)[nH]c(=O)n2COCCO)cc1
10,0.00309,CC(C)c1c(Sc2ccccc2)n(COCc2ccccc2)c(=O)[nH]c1=O
11,19.1,CC#Cc1c(Sc2ccccc2)n(COCCO)c(=O)[nH]c1=O
12,295,Cc1c(Sc2cccc(CO)c2)n(COCCO)c(=O)[nH]c1=O
13,7.59,Cc1c(Sc2ccccc2)n(COCCOC(=O)c2ccccc2)c(=O)[nH]c1=O
14,219,Cc1ccc(Sc2c(C)c(=O)[nH]c(=O)n2COCCO)cc1
15,1.1,Cc1c(Sc2ccccc2)n(COCCF)c(=O)[nH]c1=O
16,10,Cc1c(Sc2cccc(C#N)c2)n(COCCO)c(=O)[nH]c1=O
17,251,Cc1c(Sc2ccc(F)cc2)n(COCCO)c(=O)[nH]c1=O
18,0.00282,CCc1c(Sc2cc(C)cc(C)c2)n(COCc2ccccc2)c(=O)[nH]c1=O
19,6.76,CC(=O)OCCOCn1c(Sc2ccccc2)c(C)c(=O)[nH]c1=O
20,81.3,Cc1c(Sc2cccc(O)c2)n(COCCO)c(=O)[nH]c1=O
21,0.00776,CCc1c(Sc2cc(C)cc(C)c2)n(COCCO)c(=S)[nH]c1=O
22,0.00724,CCc1c(Sc2cc(C)cc(C)c2)n(COCc2ccccc2)c(=S)[nH]c1=O
23,0.0129,CCOCn1c(Sc2cc(Cl)cc(Cl)c2)c(CC)c(=O)[nH]c1=S
24,0.977,Cc1c(Sc2ccccc2)n(COCCO)c(=S)[nH]c1=O
25,275,Cc1c(Sc2ccc(O)cc2)n(COCCO)c(=O)[nH]c1=O
26,0.1,CCOCn1c(Sc2ccccc2)c(C2CC2)c(=O)[nH]c1=O

row,IC50 [µM],SMILES
1,0.219,Cc1cc(C)cc(Sc2c(C)c(=O)[nH]c(=S)n2COCCO)c1
2,8.71,COCCOCn1c(Sc2ccccc2)c(C)c(=O)[nH]c1=O
3,355,Cc1c(Sc2cccc(C(=O)O)c2)n(COCCO)c(=O)[nH]c1=O
4,2.09,COCn1c(Sc2ccccc2)c(C)c(=O)[nH]c1=O
5,7.94,COC(=O)c1cccc(Sc2c(C)c(=O)[nH]c(=O)n2COCCO)c1
6,2.69,CCc1cccc(Sc2c(C)c(=O)[nH]c(=O)n2COCCO)c1
7,12.9,Cc1c(Sc2cccc(Cl)c2)n(COCCO)c(=O)[nH]c1=O
8,0.00741,CCOCn1c(Sc2cc(Cl)cc(Cl)c2)c(CC)c(=O)[nH]c1=O
9,12,CC(C)C(=O)c1c(Sc2ccccc2)n(COCCO)c(=O)[nH]c1=O
10,2.51,C=CCc1c(Sc2ccccc2)n(COCCO)c(=O)[nH]c1=O
11,0.0427,CCc1c(Sc2cc(Cl)cc(Cl)c2)n(COCCO)c(=S)[nH]c1=O
12,0.0589,CC(C)c1c(Sc2ccccc2)n(COCCO)c(=S)[nH]c1=O
13,0.0955,CCc1c(Sc2ccccc2)n(COCCc2ccccc2)c(=O)[nH]c1=O
14,0.11,CCc1c(Sc2ccccc2)n(COCCO)c(=S)[nH]c1=O
15,3.98,CCc1c(Sc2ccccc2)n(COC2CCCCC2)c(=O)[nH]c1=O
16,42.7,O=c1[nH]c(=O)n(COCCO)c(Sc2ccccc2)c1Cc1ccccc1
17,3.63,O=c1[nH]c(=O)n(COCCO)c(Sc2ccccc2)c1I
18,18.2,C#Cc1c(Sc2ccccc2)n(COCCO)c(=O)[nH]c1=O
19,1.62,CCc1c(Sc2ccccc2)n(COC2CCCCC2)c(=S)[nH]c1=O
20,251,Cc1c(Sc2ccc(C#N)cc2)n(COCCO)c(=O)[nH]c1=O
21,0.0263,CCOCn1c(Sc2ccccc2)c(CC)c(=O)[nH]c1=S
22,7.24,CC(=O)c1cccc(Sc2c(C)c(=O)[nH]c(=O)n2COCCO)c1
23,0.00501,CCOCn1c(Sc2cc(C)cc(C)c2)c(CC)c(=O)[nH]c1=S
24,3.39,O=c1[nH]c(=O)n(COCCO)c(Sc2ccccc2)c1C#Cc1ccccc1
25,251,Cc1c(Sc2ccc(Cl)cc2)n(COCCO)c(=O)[nH]c1=O
26,4.68,CCCCOCn1c(Sc2ccccc2)c(C)c(=O)[nH]c1=O

row,IC50 [µM],SMILES
1,10,Cc1c(Sc2cccc(I)c2)n(COCCO)c(=O)[nH]c1=O
2,19.1,COc1ccccc1Sc1c(C)c(=O)[nH]c(=O)n1COCCO
3,1.2,CCCCn1c(Sc2ccccc2)c(C)c(=O)[nH]c1=O
4,30.2,O=c1[nH]c(=O)n(COCCO)c(Sc2ccccc2)c1Cl
5,0.00575,CCOCn1c(Sc2cc(C)cc(C)c2)c(CC)c(=O)[nH]c1=O
6,2.04,C=Cc1c(Sc2ccccc2)n(COCCO)c(=O)[nH]c1=O
7,34.7,CCCCCOCCOCn1c(Sc2ccccc2)c(C)c(=O)[nH]c1=O
8,191,Cc1c(Sc2ccc([N+](=O)[O-])cc2)n(COCCO)c(=O)[nH]c1=O
9,1.51,Cc1c(Sc2ccccc2)n(COCCCl)c(=O)[nH]c1=O
10,70.8,Cc1ccccc1Sc1c(C)c(=O)[nH]c(=O)n1COCCO
11,3.31,CCCOCn1c(Sc2ccccc2)c(C)c(=O)[nH]c1=O
12,18.2,O=C(Nc1ccccc1)c1c(Sc2ccccc2)n(COCCO)c(=O)[nH]c1=O
13,0.00724,CC(C)c1c(Sc2ccccc2)n(COCc2ccccc2)c(=S)[nH]c1=O
14,2.57,Cc1cccc(Sc2c(C)c(=O)[nH]c(=O)n2COCCO)c1
15,0.339,CCc1c(Sc2ccccc2)n(COC(C)C)c(=O)[nH]c1=O
16,0.355,CCc1c(Sc2ccccc2)n(COCC2CCCCC2)c(=S)[nH]c1=O
17,44.7,Cc1c(Sc2cccc(C(F)(F)F)c2)n(COCCO)c(=O)[nH]c1=O
18,100,O=c1[nH]c(=O)n(COCCO)c(Sc2ccccc2)c1F
19,151,Cc1c(Sc2ccccc2)n(C)c(=O)[nH]c1=O
20,33.9,Cc1c(Sc2cccc([N+](=O)[O-])c2)n(COCCO)c(=O)[nH]c1=O
21,6.03,O=c1[nH]c(=O)n(COCCO)c(Sc2ccccc2)c1/C=C/c1ccccc1
22,2.19,CCn1c(Sc2ccccc2)c(C)c(=O)[nH]c1=O
23,20,Cc1c(Sc2ccccc2)n(COCCOCc2ccccc2)c(=O)[nH]c1=O
24,141,Cc1c(Sc2ccccc2[N+](=O)[O-])n(COCCO)c(=O)[nH]c1=O
25,0.0871,Cc1c(Sc2ccccc2)n(COCc2ccccc2)c(=O)[nH]c1=O
26,0.0631,CC(C)c1c(Sc2ccccc2)n(COCCO)c(=O)[nH]c1=O
